Source: patent US20020137929A1, “1 - (3-heterocyclylphenyl) isothiourea, -isourea, -guanidine and -amidine herbicidal agents” (Intellectual Property Department, BASF Aktiengesellschaft, priority 1998, published 2002)

Experiments:
AMBEL (Ragweed, Common) = assay: Postemergence herbicidal evaluation; type: in vivo, Ambrosia artemisifolia; settings: postemergence
Summary of the method: (§1)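 ~2-wk seedlings; postemergence spray, 40 psi; vehicle 1:1 acetone:water + 0.5% Tween 20; rate ≈0.0156–0.500 kg/ha; greenhouse hold; scored 4–5 wk after treatment, 0–9 scale vs control; repeat tests averaged.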

CASOB (Sicklepod) [1] = assay: Postemergence herbicidal evaluation; type: in vivo, Cassia obtusifolia; settings: postemergence
Summary of the method: as §1

GALAP (Galium) = assay: Postemergence herbicidal evaluation; type: in vivo, Galium aparine; settings: postemergence
Summary of the method: as §1

ABUTH (Velvetleaf) = assay: Preemergence herbicidal evaluation; type: in vivo, Abutilon theophrasti; settings: rated 4-5 weeks after treatment
Summary of the method: (§2)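 Sown cups got a single aqueous acetone spray of test compound (roughly 0.0156–0.500 kg/ha) before seedlings emerged. Evaluation, 4–5 weeks on, used a 0–9 visual scale covering plant stand, vigor, size, malformation, chlorosis and general appearance compared with controls.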

CASOB (Sicklepod) [2] = assay: Preemergence herbicidal evaluation; type: in vivo, Cassia obtusifolia; settings: rated 4-5 weeks after treatment
Summary of the method: as §2

ECHCG (Barnyardgrass) = assay: Preemergence herbicidal evaluation; type: in vivo, Echinochloa crus-galli; settings: rated 4-5 weeks after treatment
Summary of the method: as §2

[3] = test system: TRZAWR (Wheat, Winter, cv Riband); assay: Preemergence herbicidal evaluation; type: in vivo, Triticum aestivum; settings: rated 4-5 weeks after treatment
Summary of the method: as §2

ZEAMX (Corn, Field) = assay: Preemergence herbicidal evaluation; type: in vivo, Zea mays; settings: rated 4-5 weeks after treatment
Summary of the method: as §2

MOOVA (Monochoria) = assay: Preemergence weed control under flooded paddy conditions; type: in vivo, Monochoria vaginalis; settings: rated 3-4 weeks after treatment
Summary of the method: (§3)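 Seeds or propagules sown in silt loam kept flooded 1.5-3 cm; compounds in 50/50 acetone/water pipetted into flood water at about 0.0313 to 0.500 kg/ha. Greenhouse; visual 0-9 rating versus untreated control 3-4 weeks after treatment.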

[4] = test system: SAGPY (Arrowhead (Pygmaea)); assay: as above; type: in vivo, Sagittaria pygmaea; settings: rated 3-4 weeks after treatment
Summary of the method: as §3

CYPIR (Rice Flatsedge) = assay: Postemergence weed control under flooded paddy conditions; type: in vivo, Cyperus iria; settings: postemergence weeds, 3-4 weeks after treatment
Summary of the method: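 Injury ratings (0–9 scale covering stand, vigor, malformation, size, chlorosis and overall appearance versus control) were made three to four weeks after treatment. Test material, about 0.0313 to 0.500 kg/ha a.i. in 50/50 v/v aqueous/acetone, was added to flood water 1.5 to 3 cm deep over 3 to 5 cm weeds and 1.5 to 2.5 leaf rice.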

[5] = test system: GLXMAW (Soybean, Williams); assay: Preemergence herbicidal evaluation; type: in vivo, Glycine max, (L.) Merr. cv Williams; settings: rated 4-5 weeks after treatment
Summary of the method: as §2

With `CN1C(=O)C(F)SC1=Nc1cc(N2C(=O)C3=C(CCCC3)C2=O)c(F)cc1Cl` (stereo not drawn) [Compound 5, N-{4-chloro-2-fluoro-5-[(5-fluoro-3-methyl-4-oxo-2-thiazolidinylidene)amino]phenyl}-1-cyclohexene-1,2-dicarboximide] the AMBEL herbicidal rating (AMBEL (Ragweed, Common); rate 0.0157 kg/ha) was 0.0, the AMBEL herbicidal rating (AMBEL (Ragweed, Common); rate 0.0313 kg/ha) was 0.0 and the AMBEL herbicidal rating (AMBEL (Ragweed, Common); rate 0.0625 kg/ha) was 0.0. For the same compound, the AMBEL herbicidal rating (AMBEL (Ragweed, Common); rate 0.1250 kg/ha) was 0.0, the AMBEL herbicidal rating (AMBEL (Ragweed, Common); rate 0.2500 kg/ha) was 2.0 and the AMBEL herbicidal rating (AMBEL (Ragweed, Common); rate 0.5000 kg/ha) was 9.0. For the same compound, the CASOB herbicidal rating (CASOB (Sicklepod) [1]; rate 0.0157 kg/ha) was 0.0, the CASOB herbicidal rating (CASOB (Sicklepod) [1]; rate 0.0313 kg/ha) was 0.0 and the CASOB herbicidal rating (CASOB (Sicklepod) [1]; rate 0.0625 kg/ha) was 0.0. It also gave a CASOB herbicidal rating (CASOB (Sicklepod) [1]; rate 0.1250 kg/ha) of 0.0, a CASOB herbicidal rating (CASOB (Sicklepod) [1]; rate 0.2500 kg/ha) of 0.0 and a CASOB herbicidal rating (CASOB (Sicklepod) [1]; rate 0.5000 kg/ha) of 9.0. The GALAP herbicidal rating (GALAP (Galium); rate 0.0157 kg/ha) was 0.0, the GALAP herbicidal rating (GALAP (Galium); rate 0.0313 kg/ha) was 2.0 and the GALAP herbicidal rating (GALAP (Galium); rate 0.0625 kg/ha) was 8.0. It also gave a GALAP herbicidal rating (GALAP (Galium); rate 0.1250 kg/ha) of 9.0, a GALAP herbicidal rating (GALAP (Galium); rate 0.2500 kg/ha) of 9.0 and a GALAP herbicidal rating (GALAP (Galium); rate 0.5000 kg/ha) of 9.0. For the same compound, the “ABUTH preemergence herbicidal rating” value (ABUTH (Velvetleaf); rate 0.0625 kg/ha) was 0.0, the “ABUTH preemergence herbicidal rating” value (ABUTH (Velvetleaf); rate 0.1250 kg/ha) was 0.0 and the “ABUTH preemergence herbicidal rating” value (ABUTH (Velvetleaf); rate 0.2500 kg/ha) was 0.0. The “ABUTH preemergence herbicidal rating” value (ABUTH (Velvetleaf); rate 0.5000 kg/ha) was 0.0, the “CASOB preemergence herbicidal rating” value (CASOB (Sicklepod) [2]; rate 0.0625 kg/ha) was 0.0 and the “CASOB preemergence herbicidal rating” value (CASOB (Sicklepod) [2]; rate 0.1250 kg/ha) was 0.0. The “CASOB preemergence herbicidal rating” value (CASOB (Sicklepod) [2]; rate 0.2500 kg/ha) was 0.0, the “CASOB preemergence herbicidal rating” value (CASOB (Sicklepod) [2]; rate 0.5000 kg/ha) was 0.0 and the “ECHCG preemergence herbicidal rating” value (ECHCG (Barnyardgrass); rate 0.0625 kg/ha) was 0.0. The “ECHCG preemergence herbicidal rating” value (ECHCG (Barnyardgrass); rate 0.1250 kg/ha) was 2.0, the “ECHCG preemergence herbicidal rating” value (ECHCG (Barnyardgrass); rate 0.2500 kg/ha) was 6.0 and the “ECHCG preemergence herbicidal rating” value (ECHCG (Barnyardgrass); rate 0.5000 kg/ha) was 7.0. For the same compound, the “TRZAWR preemergence herbicidal rating” value ([3]; rate 0.0625 kg/ha) was 0.0, the “TRZAWR preemergence herbicidal rating” value ([3]; rate 0.1250 kg/ha) was 0.0 and the “TRZAWR preemergence herbicidal rating” value ([3]; rate 0.2500 kg/ha) was 1.0. The “TRZAWR preemergence herbicidal rating” value ([3]; rate 0.5000 kg/ha) was 2.0, the “ZEAMX preemergence herbicidal rating” value (ZEAMX (Corn, Field); rate 0.0625 kg/ha) was 0.0 and the “ZEAMX preemergence herbicidal rating” value (ZEAMX (Corn, Field); rate 0.1250 kg/ha) was 1.0. The “ZEAMX preemergence herbicidal rating” value (ZEAMX (Corn, Field); rate 0.2500 kg/ha) was 2.0, the “ZEAMX preemergence herbicidal rating” value (ZEAMX (Corn, Field); rate 0.5000 kg/ha) was 2.0 and the “Herbicidal rating MOOVA” value (MOOVA (Monochoria); 0.1250 kg/ha) was 2.0. The “Herbicidal rating MOOVA” value (MOOVA (Monochoria); 0.2500 kg/ha) was 4.0, the “Herbicidal rating MOOVA” value (MOOVA (Monochoria); 0.5000 kg/ha) was 8.0 and the “Herbicidal rating SAGPY” value ([4]; 0.1250 kg/ha) was 0.0. For the same compound, the “Herbicidal rating SAGPY” value ([4]; 0.2500 kg/ha) was 0.0, the “Herbicidal rating SAGPY” value ([4]; 0.5000 kg/ha) was 0.0 and the “Herbicidal rating CYPIR” value (CYPIR (Rice Flatsedge); rate 0.1250 kg/ha) was 0.0. The “Herbicidal rating CYPIR” value (CYPIR (Rice Flatsedge); rate 0.2500 kg/ha) was 0.0 and the “Herbicidal rating CYPIR” value (CYPIR (Rice Flatsedge); rate 0.5000 kg/ha) was 0.0.
Compound `O=C1CSC(=Nc2cc(N3C(=O)C4=C(CCCC4)C3=O)c(F)cc2Cl)N1c1ccccc1` [Compound 3, N-{4-chloro-2-fluoro-5-[(4-oxo-3-phenyl-2-thiazolidinylidene)amino]phenyl}-1-cyclohexene-1,2-dicarboximide] has an AMBEL herbicidal rating (AMBEL (Ragweed, Common); rate 0.0313 kg/ha) of 2.0, an AMBEL herbicidal rating (AMBEL (Ragweed, Common); rate 0.0625 kg/ha) of 0.0 and an AMBEL herbicidal rating (AMBEL (Ragweed, Common); rate 0.1250 kg/ha) of 6.0. The AMBEL herbicidal rating (AMBEL (Ragweed, Common); rate 0.2500 kg/ha) was 6.0, the AMBEL herbicidal rating (AMBEL (Ragweed, Common); rate 0.5000 kg/ha) was 9.0 and the CASOB herbicidal rating (CASOB (Sicklepod) [1]; rate 0.0157 kg/ha) was 0.0. The CASOB herbicidal rating (CASOB (Sicklepod) [1]; rate 0.0313 kg/ha) was 0.0, the CASOB herbicidal rating (CASOB (Sicklepod) [1]; rate 0.0625 kg/ha) was 0.0 and the CASOB herbicidal rating (CASOB (Sicklepod) [1]; rate 0.1250 kg/ha) was 0.0. It also gave a CASOB herbicidal rating (CASOB (Sicklepod) [1]; rate 0.2500 kg/ha) of 6.0, a CASOB herbicidal rating (CASOB (Sicklepod) [1]; rate 0.5000 kg/ha) of 4.0 and a GALAP herbicidal rating (GALAP (Galium); rate 0.0157 kg/ha) of 9.0. The GALAP herbicidal rating (GALAP (Galium); rate 0.0313 kg/ha) was 2.0, the GALAP herbicidal rating (GALAP (Galium); rate 0.0625 kg/ha) was 4.0 and the GALAP herbicidal rating (GALAP (Galium); rate 0.1250 kg/ha) was 4.0. For the same compound, the GALAP herbicidal rating (GALAP (Galium); rate 0.2500 kg/ha) was 6.0, the GALAP herbicidal rating (GALAP (Galium); rate 0.5000 kg/ha) was 9.0 and the “ABUTH preemergence herbicidal rating” value (ABUTH (Velvetleaf); rate 0.0625 kg/ha) was 2.0. For the same compound, the “ABUTH preemergence herbicidal rating” value (ABUTH (Velvetleaf); rate 0.1250 kg/ha) was 2.0, the “ABUTH preemergence herbicidal rating” value (ABUTH (Velvetleaf); rate 0.2500 kg/ha) was 0.0 and the “ABUTH preemergence herbicidal rating” value (ABUTH (Velvetleaf); rate 0.5000 kg/ha) was 6.0. For the same compound, the “CASOB preemergence herbicidal rating” value (CASOB (Sicklepod) [2]; rate 0.0313 kg/ha) was 0.0, the “CASOB preemergence herbicidal rating” value (CASOB (Sicklepod) [2]; rate 0.0625 kg/ha) was 0.0 and the “CASOB preemergence herbicidal rating” value (CASOB (Sicklepod) [2]; rate 0.1250 kg/ha) was 0.0. For the same compound, the “CASOB preemergence herbicidal rating” value (CASOB (Sicklepod) [2]; rate 0.2500 kg/ha) was 0.0, the “CASOB preemergence herbicidal rating” value (CASOB (Sicklepod) [2]; rate 0.5000 kg/ha) was 2.0 and the “ECHCG preemergence herbicidal rating” value (ECHCG (Barnyardgrass); rate 0.0313 kg/ha) was 0.0. For the same compound, the “ECHCG preemergence herbicidal rating” value (ECHCG (Barnyardgrass); rate 0.0625 kg/ha) was 0.0, the “ECHCG preemergence herbicidal rating” value (ECHCG (Barnyardgrass); rate 0.1250 kg/ha) was 2.0 and the “ECHCG preemergence herbicidal rating” value (ECHCG (Barnyardgrass); rate 0.2500 kg/ha) was 4.0. For the same compound, the “ECHCG preemergence herbicidal rating” value (ECHCG (Barnyardgrass); rate 0.5000 kg/ha) was 6.0, the “GLXMAW preemergence herbicidal rating” value ([5]; rate 0.0313 kg/ha) was 0.0 and the “GLXMAW preemergence herbicidal rating” value ([5]; rate 0.0625 kg/ha) was 0.0. The “GLXMAW preemergence herbicidal rating” value ([5]; rate 0.1250 kg/ha) was 0.0, the “GLXMAW preemergence herbicidal rating” value ([5]; rate 0.2500 kg/ha) was 0.0 and the “GLXMAW preemergence herbicidal rating” value ([5]; rate 0.5000 kg/ha) was 2.0. The “TRZAWR preemergence herbicidal rating” value ([3]; rate 0.0313 kg/ha) was 0.0, the “TRZAWR preemergence herbicidal rating” value ([3]; rate 0.0625 kg/ha) was 0.0 and the “TRZAWR preemergence herbicidal rating” value ([3]; rate 0.1250 kg/ha) was 0.0. For the same compound, the “TRZAWR preemergence herbicidal rating” value ([3]; rate 0.2500 kg/ha) was 2.0, the “TRZAWR preemergence herbicidal rating” value ([3]; rate 0.5000 kg/ha) was 2.0 and the “ZEAMX preemergence herbicidal rating” value (ZEAMX (Corn, Field); rate 0.0313 kg/ha) was 0.0. The “ZEAMX preemergence herbicidal rating” value (ZEAMX (Corn, Field); rate 0.0625 kg/ha) was 0.0, the “ZEAMX preemergence herbicidal rating” value (ZEAMX (Corn, Field); rate 0.1250 kg/ha) was 1.0 and the “ZEAMX preemergence herbicidal rating” value (ZEAMX (Corn, Field); rate 0.2500 kg/ha) was 2.0. For the same compound, the “ZEAMX preemergence herbicidal rating” value (ZEAMX (Corn, Field); rate 0.5000 kg/ha) was 4.0, the “Herbicidal rating MOOVA” value (MOOVA (Monochoria); 0.0625 kg/ha) was 2.0 and the “Herbicidal rating MOOVA” value (MOOVA (Monochoria); 0.1250 kg/ha) was 9.0. The “Herbicidal rating MOOVA” value (MOOVA (Monochoria); 0.2500 kg/ha) was 9.0, the “Herbicidal rating MOOVA” value (MOOVA (Monochoria); 0.5000 kg/ha) was 9.0 and the “Herbicidal rating SAGPY” value ([4]; 0.0625 kg/ha) was 0.0. For the same compound, the “Herbicidal rating SAGPY” value ([4]; 0.1250 kg/ha) was 0.0, the “Herbicidal rating SAGPY” value ([4]; 0.2500 kg/ha) was 0.0 and the “Herbicidal rating SAGPY” value ([4]; 0.5000 kg/ha) was 0.0. The “Herbicidal rating CYPIR” value (CYPIR (Rice Flatsedge); rate 0.0625 kg/ha) was 0.0, the “Herbicidal rating CYPIR” value (CYPIR (Rice Flatsedge); rate 0.1250 kg/ha) was 0.0 and the “Herbicidal rating CYPIR” value (CYPIR (Rice Flatsedge); rate 0.2500 kg/ha) was 0.0. For the same compound, the “Herbicidal rating CYPIR” value (CYPIR (Rice Flatsedge); rate 0.5000 kg/ha) was 0.5.
